Measurements as given in PMC3950514 (mBio, 2014).

How the values were obtained:
[1] = molecular target: CnCam1 with human calcineurin (Cryptococcus neoformans, UniProt J9VTH9); assay: malachite green phosphate release from RII phosphopeptide by human calcineurin; type: biochemical
[2] = molecular target: C. neoformans calmodulin (Cam1) (C. neoformans); assay: pull-down

Chain of green fluorescent protein (GFP)-tagged C. neoformans calcineurin (Cna1-GFP) (O42773 whole entry): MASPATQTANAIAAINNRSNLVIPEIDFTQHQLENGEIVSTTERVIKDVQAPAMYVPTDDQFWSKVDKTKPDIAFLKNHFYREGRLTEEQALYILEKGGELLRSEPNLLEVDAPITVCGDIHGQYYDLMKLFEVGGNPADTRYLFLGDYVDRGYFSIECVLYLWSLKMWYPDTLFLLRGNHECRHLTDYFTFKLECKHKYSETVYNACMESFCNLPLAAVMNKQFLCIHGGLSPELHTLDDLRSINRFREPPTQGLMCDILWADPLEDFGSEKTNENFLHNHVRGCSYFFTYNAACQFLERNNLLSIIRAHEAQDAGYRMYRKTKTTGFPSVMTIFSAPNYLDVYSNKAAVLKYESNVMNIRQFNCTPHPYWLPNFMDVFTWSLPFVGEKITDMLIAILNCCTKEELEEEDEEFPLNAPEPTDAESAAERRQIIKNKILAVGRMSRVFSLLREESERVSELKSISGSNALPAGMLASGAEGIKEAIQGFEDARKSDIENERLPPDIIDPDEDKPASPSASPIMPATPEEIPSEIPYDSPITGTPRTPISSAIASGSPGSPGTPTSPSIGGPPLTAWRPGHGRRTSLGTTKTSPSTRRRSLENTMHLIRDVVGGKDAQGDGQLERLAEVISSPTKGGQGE

Molecule	IC50 [1]	percent reduction of the bound amount with toremifene (20 µg/ml) against DMSO [2]
CN(C)CCOc1ccc(/C(=C(/CCCl)c2ccccc2)c2ccccc2)cc1 [TOR, toremifene]	61.6 µM	–
green fluorescent protein (GFP)-tagged C. neoformans calcineurin (Cna1-GFP) (from UniProt O42773 1-639) (enzyme)	–	45%
